Measured values as given in publication PMC10952433, “A Chemoenzymatic Approach To Produce a Cyclic Analogue of the Analgesic Drug MVIIA (Ziconotide)” (Angewandte Chemie (International Ed. in English), 2023).

Legend:
[1] = target: T1, CaV2.2 (Homo sapiens, UniProt Q00975)
[2] = target: T1, CaV2.2; assay: cell-based

T1 sequence (Q00975 whole entry, looked up): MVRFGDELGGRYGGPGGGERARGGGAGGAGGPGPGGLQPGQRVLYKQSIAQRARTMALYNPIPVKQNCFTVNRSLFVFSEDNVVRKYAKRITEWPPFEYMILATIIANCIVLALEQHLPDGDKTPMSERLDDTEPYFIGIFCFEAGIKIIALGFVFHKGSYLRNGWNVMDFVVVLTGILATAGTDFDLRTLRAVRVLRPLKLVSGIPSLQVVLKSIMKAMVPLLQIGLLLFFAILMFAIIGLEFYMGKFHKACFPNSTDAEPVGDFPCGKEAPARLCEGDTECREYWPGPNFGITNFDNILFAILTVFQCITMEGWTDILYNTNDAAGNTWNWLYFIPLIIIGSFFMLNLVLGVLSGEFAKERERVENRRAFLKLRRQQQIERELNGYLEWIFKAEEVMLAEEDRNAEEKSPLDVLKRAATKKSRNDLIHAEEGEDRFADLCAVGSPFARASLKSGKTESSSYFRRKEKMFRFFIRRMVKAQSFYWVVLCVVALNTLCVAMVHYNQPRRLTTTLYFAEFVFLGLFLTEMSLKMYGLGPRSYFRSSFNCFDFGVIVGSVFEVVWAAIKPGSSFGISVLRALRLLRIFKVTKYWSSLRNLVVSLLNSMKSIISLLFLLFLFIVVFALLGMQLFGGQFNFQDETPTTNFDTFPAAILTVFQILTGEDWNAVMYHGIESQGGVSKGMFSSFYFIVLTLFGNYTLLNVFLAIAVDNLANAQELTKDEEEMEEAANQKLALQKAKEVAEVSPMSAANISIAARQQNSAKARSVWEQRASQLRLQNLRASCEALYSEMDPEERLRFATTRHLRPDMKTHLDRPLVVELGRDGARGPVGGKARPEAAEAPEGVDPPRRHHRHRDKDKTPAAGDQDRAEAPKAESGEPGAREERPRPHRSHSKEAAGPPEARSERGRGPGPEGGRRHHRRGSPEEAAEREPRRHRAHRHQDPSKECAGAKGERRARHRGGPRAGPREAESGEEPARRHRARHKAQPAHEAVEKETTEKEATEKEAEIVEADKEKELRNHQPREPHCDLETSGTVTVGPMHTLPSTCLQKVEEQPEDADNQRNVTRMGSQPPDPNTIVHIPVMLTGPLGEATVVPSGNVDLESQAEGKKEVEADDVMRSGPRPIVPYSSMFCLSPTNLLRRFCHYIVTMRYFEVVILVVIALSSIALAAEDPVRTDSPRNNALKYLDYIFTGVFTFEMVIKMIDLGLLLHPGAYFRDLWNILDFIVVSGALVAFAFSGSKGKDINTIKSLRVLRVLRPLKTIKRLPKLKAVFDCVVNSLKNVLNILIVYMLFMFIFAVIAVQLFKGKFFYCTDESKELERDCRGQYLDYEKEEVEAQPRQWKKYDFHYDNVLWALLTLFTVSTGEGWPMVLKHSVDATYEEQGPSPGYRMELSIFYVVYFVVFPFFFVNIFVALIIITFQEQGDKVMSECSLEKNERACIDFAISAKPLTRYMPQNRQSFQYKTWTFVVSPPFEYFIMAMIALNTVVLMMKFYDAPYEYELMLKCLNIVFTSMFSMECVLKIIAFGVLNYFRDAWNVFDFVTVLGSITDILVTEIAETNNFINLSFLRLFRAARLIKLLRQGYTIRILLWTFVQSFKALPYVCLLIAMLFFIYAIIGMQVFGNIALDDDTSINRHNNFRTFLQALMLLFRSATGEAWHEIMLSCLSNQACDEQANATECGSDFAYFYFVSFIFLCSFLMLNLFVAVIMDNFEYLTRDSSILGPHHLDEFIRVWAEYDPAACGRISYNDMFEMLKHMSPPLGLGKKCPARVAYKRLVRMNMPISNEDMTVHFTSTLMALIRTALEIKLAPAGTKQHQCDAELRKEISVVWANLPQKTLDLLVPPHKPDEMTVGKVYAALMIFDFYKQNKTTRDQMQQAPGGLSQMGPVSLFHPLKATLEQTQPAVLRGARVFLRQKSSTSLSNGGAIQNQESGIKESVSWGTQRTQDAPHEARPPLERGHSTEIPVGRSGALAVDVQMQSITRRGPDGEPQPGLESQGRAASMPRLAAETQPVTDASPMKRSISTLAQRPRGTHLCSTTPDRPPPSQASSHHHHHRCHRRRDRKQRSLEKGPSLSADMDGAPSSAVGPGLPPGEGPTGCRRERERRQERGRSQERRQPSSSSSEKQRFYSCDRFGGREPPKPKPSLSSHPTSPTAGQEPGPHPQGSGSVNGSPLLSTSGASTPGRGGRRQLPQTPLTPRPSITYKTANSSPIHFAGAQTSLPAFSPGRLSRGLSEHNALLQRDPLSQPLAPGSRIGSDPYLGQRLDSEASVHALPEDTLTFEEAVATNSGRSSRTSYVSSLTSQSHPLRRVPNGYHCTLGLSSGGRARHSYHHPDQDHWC

For `CCCC[C@@H]1NC(=O)[C@H](CC(C)C)NC(=O)[C@H](CCCNC(=N)N)NC(=O)[C@H](CO)NC(=O)[C@@H]2CSSC[C@@H]3NC(=O)[C@H](CO)NC(=O)CNC(=O)[C@H]([C@@H](C)O)NC(=O)[C@H](CSSC[C@H](NC(=O)[C@H](C)NC(=O)[C@H](C)NC(=O)CNC(=O)CN)C(=O)N[C@@H](CCCCN)C(=O)NCC(=O)N[C@@H](CCCCN)C(=O)NCC(=O)N[C@@H](C)C(=O)N[C@@H](CCCCN)C(=O)N2)NC(=O)[C@H](CSSC[C@@H](C(=O)N[C@@H](C)C(=O)NCC(=O)NCC(=O)N[C@@H](CC(N)=O)C(=O)NCC(=O)N[C@@H](CC(C)C)C(=O)O)NC(=O)[C@H](CCCCN)NC(=O)CNC(=O)[C@H](CO)NC(=O)[C@H](CCCNC(=N)N)NC3=O)NC(=O)[C@H](CC(=O)O)NC(=O)[C@H](Cc2ccc(O)cc2)NC1=O` [M-8], which LogEC50 [1] is on record?
Its LogEC50 is -7.1.

What about the EC50 [2] of the same compound?
Its EC50 is 78.7 nM.

For `CCCC[C@@H]1NC(=O)[C@H](CC(C)C)NC(=O)[C@H](CCCNC(=N)N)NC(=O)[C@H](CO)NC(=O)[C@@H]2CSSC[C@@H]3NC(=O)[C@H](CO)NC(=O)CNC(=O)[C@H]([C@@H](C)O)NC(=O)[C@H](CSSC[C@H](NC(=O)[C@H](C)NC(=O)[C@H](C)NC(=O)CNC(=O)CN)C(=O)N[C@@H](CCCCN)C(=O)NCC(=O)N[C@@H](CCCCN)C(=O)NCC(=O)N[C@@H](C)C(=O)N[C@@H](CCCCN)C(=O)N2)NC(=O)[C@H](CSSC[C@@H](C(=O)N[C@@H](C)C(=O)N[C@@H](C)C(=O)NCC(=O)NCC(=O)N[C@@H](CC(N)=O)C(=O)NCC(=O)N[C@@H](CC(C)C)C(=O)O)NC(=O)[C@H](CCCCN)NC(=O)CNC(=O)[C@H](CO)NC(=O)[C@H](CCCNC(=N)N)NC3=O)NC(=O)[C@H](CC(=O)O)NC(=O)[C@H](Cc2ccc(O)cc2)NC1=O` [M-9], which LogEC50 [1] is on record?
The LogEC50 was -7.5.

What about the EC50 [2] of the same compound?
The EC50 was 31.9 nM.

And the IC50 [2]?
The IC50 was 31.9 ± 2.6 nM.

Which results are given for `CCCC[C@@H]1NC(=O)[C@H](CC(C)C)NC(=O)[C@H](CCCNC(=N)N)NC(=O)[C@H](CO)NC(=O)[C@@H]2CSSC[C@@H]3NC(=O)[C@H](CO)NC(=O)CNC(=O)[C@H]([C@@H](C)O)NC(=O)[C@H](CSSC[C@H](NC(=O)[C@H](C)NC(=O)[C@H](C)NC(=O)CNC(=O)CN)C(=O)N[C@@H](CCCCN)C(=O)NCC(=O)N[C@@H](CCCCN)C(=O)NCC(=O)N[C@@H](C)C(=O)N[C@@H](CCCCN)C(=O)N2)NC(=O)[C@H](CSSC[C@@H](C(=O)N[C@@H](C)C(=O)NCC(=O)N[C@@H](CC(N)=O)C(=O)NCC(=O)N[C@@H](CC(C)C)C(=O)O)NC(=O)[C@H](CCCCN)NC(=O)CNC(=O)[C@H](CO)NC(=O)[C@H](CCCNC(=N)N)NC3=O)NC(=O)[C@H](CC(=O)O)NC(=O)[C@H](Cc2ccc(O)cc2)NC1=O` [M-7]?
LogEC50 [1]: -7.3; EC50 [2]: 55.5 nM

With `CCCC[C@@H]1NC(=O)[C@H](CC(C)C)NC(=O)[C@H](CCCNC(=N)N)NC(=O)[C@H](CO)NC(=O)[C@@H]2CSSC[C@@H]3NC(=O)[C@H](CO)NC(=O)CNC(=O)[C@H]([C@@H](C)O)NC(=O)[C@H](CSSC[C@H](NC(=O)[C@H](C)NC(=O)CNC(=O)CN)C(=O)N[C@@H](CCCCN)C(=O)NCC(=O)N[C@@H](CCCCN)C(=O)NCC(=O)N[C@@H](C)C(=O)N[C@@H](CCCCN)C(=O)N2)NC(=O)[C@H](CSSC[C@@H](C(=O)N[C@@H](C)C(=O)NCC(=O)N[C@@H](CC(N)=O)C(=O)NCC(=O)N[C@@H](CC(C)C)C(=O)O)NC(=O)[C@H](CCCCN)NC(=O)CNC(=O)[C@H](CO)NC(=O)[C@H](CCCNC(=N)N)NC3=O)NC(=O)[C@H](CC(=O)O)NC(=O)[C@H](Cc2ccc(O)cc2)NC1=O` [M-6] as the compound, how does the LogEC50 [1] read?
The LogEC50 was -7.2.

And the EC50 [2]?
The EC50 was 67.8 nM.
